The values below come from patent US5804603A, “Synthesized β-adrenergic blockers derivatives of guaiacol” (National Science Council, priority 1995, dated 1998).

Read-outs that look alike come from different tables or passages of the source.

The test system of series [1] is right eye of male Wistar rats. Kind of series: Eye wiping test (pain-producing potency). In kind it is in vivo. As to conditions: for pain producing potency: eye drops 10^-4 to 10^-2 M, 30 min, FIG. 1. The method, then:
The wiping test was performed as described by Szolcsanyiand, Jancso-Gabor. Briefly, the solution or suspension of the test compound and its analogs was made up in 10% ethanol, 5% Tween 80 and then diluted with saline to the required concentrations. Each solution or suspension of 10^-4 M, 10^-3 M, 10^-2 M was dropped into the right eye (vehicle being administered to the left eye as negative control) of male Wistar rats weighing 180-250 g and the total number of protective movements (scratching, wiping of the eye with the foreleg) was counted for 30 minutes. Each test was carried out with a total of 6 rats, and a dose-response curve was obtained from the mean value of each group.

A further series addresses β-receptor (Cavia porcellus, UniProt H0W3H1). Kind of series: Receptor binding assay, [3H]-dihydroalprenolol, heart ventricle membranes. Particulars: for IC50: FIG. 15 and Table 4.
A short description of the next series: Water solubility. It is filed as physicochemical.
For series [2], the system named is acetic acid-induced writhing syndrome. Kind of series: Acetic acid-induced writhing (antinociceptive test). It is filed as in vivo, male mice (ddk strain). The method, then:
Following the method described by Koster antinociceptive tests were carried out in male mice after intraperitoneal administration of test solution. […] The test solution was administered by intraperitoneal injection of a single dose 0.2 ml (vehicle administered as control). Twenty minutes after injection, 0.2 ml of 0.7% acetic acid was injected intraperitoneally to induce writhing.
A general note: In writhing tests, fewer writhes than in controls are read as antinociception.

The test system of series [3] is β1 adrenergic receptor. Kind of series: Antagonism of isoproterenolol on isolated guinea pig right atrium. It is filed as cell-based. The text has this:
(§1) A bath as described in Gen.
(§2) The determination of the pA2 is made from experiments in which a fixed concentration of the antagonist is used along with graded concentrations of an agonist acting on the same receptor. The presence of the antagonist shifts the agonist dose-response curve to the right.

The target of series [4] is T1, β1 adrenergic receptor (Cavia porcellus, UniProt H0W3H1).
T1 construct: isolated guinea pig right atrium; from tissue; host or cells: guinea pig right atrium (isolated organ)
The description is as above. In kind it is cell-based.
Description: as §1, §2

The test system of series [5] is platelet aggregation induced by collagen. Kind of series: Collagen-induced platelet aggregation in platelet rich plasma. It is filed as cell-based. Particulars: 10 μg/ml collagen, PRP.
Description: A monophasic aggregation curve was observed when 10 μg/ml of collagen was added to platelet rich plasma (PRP).
Series [6] deals with heart rate and blood pressure. The experiment in a line: Heart rate and blood pressure of anesthetized rats (i.v.). In kind it is in vivo. The text has this:
[…]. The effect of DZN on heart rate and blood pressure were monitored.
[…]. Exp. Ther., vol. 96, 99-113). The ID50 value is the response of a β drug which produces a response in 50% of […].

The next series can be described thus: in vivo. Particulars: mouse, mice, read-out: LD50 (95% C.L.).
The next series concerns the target T2, β2 adrenergic receptor (Rattus norvegicus, UniProt P10608).
T2 construct: from tissue; host or cells: rat uterus horns (isolated organ, stilbestrol and reserpine pretreated)
The experiment in a line: Antagonism of isoproterenolol on isolated rat uterus horns. It is filed as cell-based. The method, then: Female rats were intraperitonealy injected with stilbestrol (1 mg/kg) to elevate the sensitivity of β2 adrenergic receptor in uterus horns. The rats were subsequently administered reserpine to deplete the catecholamine in uterus. The isolated uterus horns were treated with phenoxybenzamine to block the neuronal uptake and the interaction between neuron cells and the adrenergic receptor.

The next series concerns blood vessels. As to conditions: mouse and rat; cited from earlier work.
A further series relates to isolated portal veins. Particulars: mice; cited from earlier work.
Series [7] deals with carrageenin-induced paw edema. As to conditions: in vivo; cited from earlier work.
In the next series the test system is platelets. As to conditions: cited from earlier work.
In a further series the test system is intraocular pressure. As to conditions: in vivo; cited from earlier work.

Sequence of β-receptor (H0W3H1 1-470): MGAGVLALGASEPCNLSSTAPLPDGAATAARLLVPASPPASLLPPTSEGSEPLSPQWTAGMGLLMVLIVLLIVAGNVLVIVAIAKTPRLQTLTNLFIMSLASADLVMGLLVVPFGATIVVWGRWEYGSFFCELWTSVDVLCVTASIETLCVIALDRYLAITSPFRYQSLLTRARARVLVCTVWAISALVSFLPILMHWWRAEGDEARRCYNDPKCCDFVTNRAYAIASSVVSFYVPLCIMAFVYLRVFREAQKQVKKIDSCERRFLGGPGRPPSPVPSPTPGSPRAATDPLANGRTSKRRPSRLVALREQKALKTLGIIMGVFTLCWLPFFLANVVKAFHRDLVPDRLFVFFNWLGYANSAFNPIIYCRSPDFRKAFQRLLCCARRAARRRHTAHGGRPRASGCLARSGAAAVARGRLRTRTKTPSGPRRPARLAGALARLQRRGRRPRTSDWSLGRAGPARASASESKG
T1 sequence (H0W3H1 1-470): as above
T2 sequence (P10608 whole entry): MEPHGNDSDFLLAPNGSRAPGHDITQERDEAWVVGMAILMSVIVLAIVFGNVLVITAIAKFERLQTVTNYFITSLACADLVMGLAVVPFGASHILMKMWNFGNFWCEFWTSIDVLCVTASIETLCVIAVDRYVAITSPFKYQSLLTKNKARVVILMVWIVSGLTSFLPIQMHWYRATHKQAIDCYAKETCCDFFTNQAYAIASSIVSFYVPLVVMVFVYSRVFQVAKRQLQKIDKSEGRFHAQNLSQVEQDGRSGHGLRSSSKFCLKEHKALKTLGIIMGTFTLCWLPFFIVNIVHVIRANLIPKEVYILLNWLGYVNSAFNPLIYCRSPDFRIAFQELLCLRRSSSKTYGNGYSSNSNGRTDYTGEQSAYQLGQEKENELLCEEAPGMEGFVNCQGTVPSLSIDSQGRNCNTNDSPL
Description for β-receptor: Method of receptor binding assay. After punching the heads of guinea pigs, the blood was drained and the heart ventricle immediately removed. The ventricles were placed in 10 vols. of ice-cold buffer (250 mM sucrose, 1 mM Magnesium Chloride, 50 mM Tris-HCl, pH 7.5) and all subsequent procedures were carried out at 4° C. The ventricles were homogenized using a homogenizer 3-4 times. The period of each homogenization took 15 seconds. […] The supernatant was further centrifuged at 10,000 g and the final pellet was resuspended in a small volume of 75 mM Tris buffer containing 25 mM Magnesium Chloride. The membrane protein content was determined by a protein assay dye. The receptor binding assay was initiated by incubating 100 μl of, a membrane protein solution with 50 μl of [^3 H]-dihydroalprenolol(^3 H-DHA) and the competing drugs. Additional buffer was added to increase the reaction volume up to 250 μl. The binding reaction was activated at 25° C. water by constantly shaking for 60 minutes. The binding reaction was stopped by diluting it with 1 ml of ice-cold assay buffer. The solution was then filtered on a Whatman GF/C glass fiber filter paper under vacuum suction. The filters were washed 3 times with ice-cold assay buffer and dried at 60±C. in an oven for 2 hrs. Then 4 ml of scintillation fluid was added and the radioactivity was counted on β-counter.

`COc1cc(C=CC(C)=O)ccc1OCC(O)CNC(C)(C)C` (racemic) [DZBN, 4-[4'-(2-hydroxy-3-tert-butylaminopropoxy)-3'-methoxyphenyl]-3-buten-2-one]: the pain producing potency result in series [1] was “lower than that of DZ and zingerone”. Also, the pungency entry in [1] (rat, in vivo) was “lower pungency”. For the same molecule, at β-receptor, a half-maximal response (EC50) required 3600 nM and the “IC50” value is listed as “close to the IC50 values of the well known β-adrenergic agonist Atenolol”. Moreover, the water solubility entry in the series “Water solubility” is “watersoluble”.
In [2] (1.25 mg/kg i.p., N = 8), `COc1cc(C=CC(C)=O)ccc1OCC(O)CNC(C)C` (racemic) [DZN, 4-[4'-(2-hydroxy-3-isopropylaminopropoxy)-3'-methoxyphenyl]-3-buten-2-one] showed a Protection of 86.06%. In series [2] (1.25 mg/kg i.p., N = 8), the “Writhes No. (Ave. ± S.E.)” value is 11.17 ± 2.36. Moreover, the ED50 in [2] (Mus musculus, ip, mice, Litchfield and Wilcoxon method, read-out: ED50 (95% C.I.)) came out at 0.11 mg/kg; in series [6] (Rattus norvegicus, iv, anesthetized rats, Litchfield method, read-out: ID50 : heart rate response (95% C.I.)), 0.22 mg/kg. The Potency ratio in [2] (relative to DZ = 1.00) stood at 3.50. In addition, the pain producing potency entry in series [1] was “lower than that of DZ and zingerone”. The Cardioselectivity ratio in the series with β1 adrenergic receptor [3] was determined as 4.26. Also, the “shift of isoproterenolol concentration-effect curve” value at β1 adrenergic receptor [4] (guinea pig right atrium) is recorded as “partially shifted to the right”; on β2 adrenergic receptor (10^-8 -10^-6 M DZN, rat uterus horns) it was “partially shift to the right”. The “slope of regression (Schild plot), β1” value on β1 adrenergic receptor [4] (guinea-pig right atrium) is 0.96 ± 0.05. In addition, the Kb was 6.92 nM at β1 adrenergic receptor [4] (read-out: pA2, β1 (converted)) and 29.5 nM on β2 adrenergic receptor (read-out: pA2, β2 (converted)). The EC50 (in general, the concentration needed to bring the measured effect to its halfway point) on β-receptor was determined as 1300 nM. At β-receptor, the “IC50” value was “close to the IC50 values of the well known β-adrenergic agonist Atenolol”. Moreover, in series [5], the “inhibition of collagen-induced platelet aggregation” value is recorded as “dose-dependent inhibition of platelet aggregation”. For the same molecule, the IC100 in [5] (Platelet, FIG. 18, read-out: concentration completely inhibiting platelet aggregation) stood at 250 µM. In addition, in series [6] (i.v. 0.1, 0.5, 1.0 mg/kg), the duration of bradycardia result is given as “over 1 hr”. Moreover, the bradycardia entry in [6] (i.v. 0.1, 0.5, 1.0 mg/kg, FIGS. 3-6) is on record as “dose-dependent bradycardia”. For the same molecule, the “ID50 : heart rate response (95% C.I.)” value in series [6] (i.v., anesthetized rats, Litchfield method, listed as DZH (compound 4)) is recorded as 0.22 (1.29-0.04) mg/kg. Moreover, the “time of slightly reduced blood pressure after injection” value in [6] (i.v., statistical significance not found) fell in the range of 5 to 10 min. In addition, in series [6] (rat, in vivo), the “effect on blood pressure induced by isoproterenolol” value is listed as “lowered the blood pressure induced by isoproterenolol”. Moreover, in series [6] (rat, in vivo), the “effect on resting heart rate” value was “reduced resting heart rate”. The median lethal dose (LD50) in “in vivo” (ip) and in the series “in vivo” (po) was more than 1000 mg/kg in each case. Besides, the “slope of regression (Schild plot), β2” value on β2 adrenergic receptor (rat uterus) is given as 0.99±0.11.
Consider `CCCCC[C@H](O)CC(=O)CCc1ccc(O)c(OC)c1` [Gingerol], for which the “eicosanoid-induced contraction of blood vessels” value in the series on blood vessels is “modulates the eicosanoid-induced contraction of mouse and rat blood vessels”. In the series with isolated portal veins, the “contraction of isolated portal veins” value is given as “suppresses the contraction of isolated portal veins in mice”.
As to `CCCCC/C=C/C(=O)CCc1ccc(O)c(OC)c1` [Shogaol], the carrageenin-induced paw edema result in [7] is listed as “inhibitory activity”. For the same molecule, the platelet aggregation result with platelets is “inhibitory activity”.
As for `COc1cc(C=CC(C)=O)ccc1OCC(O)CNC(C)(C)C` (centres unmarked) [Vaninolol], the “intraocular pressure (IOP)” value with intraocular pressure is “lower the intraocular pressure (IOP)”.
